# pIC50: −log10 of the molar value.
# Tests used:
# [1] = target: cannabinoid CB1 receptors; test: in vitro affinity for cannabinoid CB1 receptors (Rinaldi-Carmona et al., FEBS Letters 1994); format: binding; conditions: conditions of Rinaldi-Carmona et al., FEBS Letters, 1994, 350, 240-244
# Sequence of cannabinoid CB1 receptors (P21554 whole entry): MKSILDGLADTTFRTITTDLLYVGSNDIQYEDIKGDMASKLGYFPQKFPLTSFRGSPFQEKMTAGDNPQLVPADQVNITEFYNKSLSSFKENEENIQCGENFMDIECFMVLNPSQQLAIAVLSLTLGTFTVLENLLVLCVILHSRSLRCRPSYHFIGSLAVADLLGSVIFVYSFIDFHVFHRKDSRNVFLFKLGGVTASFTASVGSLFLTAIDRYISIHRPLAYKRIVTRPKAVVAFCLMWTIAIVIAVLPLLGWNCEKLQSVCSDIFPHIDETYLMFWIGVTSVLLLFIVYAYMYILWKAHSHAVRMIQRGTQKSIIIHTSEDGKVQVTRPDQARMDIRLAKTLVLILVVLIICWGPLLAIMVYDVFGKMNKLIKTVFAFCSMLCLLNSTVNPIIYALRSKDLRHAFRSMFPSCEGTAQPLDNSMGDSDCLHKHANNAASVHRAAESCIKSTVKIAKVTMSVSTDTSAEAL
structure (smiles),measurement,setting,value
"CCc1c(C(=O)NN2CCC(O)CC2)nn(-c2ccc(Cl)cc2Cl)c1-c1ccc(Br)cc1 [compound of formula (I), 5-(4-Bromophenyl)-1-(2,4-dichlorophenyl)-4-ethyl-N-(hydroxypiperidin-1-yl)-1H-pyrazole-3-carboxamide]",pIC50,[1],7.49
same,toxicity,toxicity,compatible with its use as a medicinal product

# — patent US20060004055A1, “Derivative of 5-(4-bromophenyl)-1-(2,4-dichlorophenyl)-4-ethyl-N-(piperidine-1-yl)-1H-pyrazole-3-carboxamide, the preparation and therapeutic use thereof” (Sanofi-Aventis, priority 2002, published 2006)
